Where two headings read alike, the source gives them in different places. Non-standard residues stand in square brackets, D forms with d. Residues, ends and D or L forms follow the SMILES beside them. *: point of attachment. pY = N[C@@H](Cc1ccc(OP(=O)(O)O)cc1)C(=O)O; Caffeoyl = O=C(/C=C/c1ccc(O)c(O)c1)*
Legend:
Experiment in all cases: biochemical
[1] = molecular target: T1, STAT3(N567K)-nonphosphorylated (Homo sapiens, UniProt P40763, N567K); format: binding; details: for remaining activity at 10 µM: primary screen
T1 construct: made in house; host or cells: HEK293 (transient transfection), unpurified extract, dephosphorylated by endogenous phosphatases

[2] = molecular target: T2, STAT3(Y640F)-nonphosphorylated (Homo sapiens, UniProt P40763, Y640F); format: binding; details: for remaining activity at 10 µM: primary screen
T2 construct: made in house; host or cells: HEK293 (transient transfection), unpurified extract, dephosphorylated by endogenous phosphatases

ZAP70(SH2dom1.dom2.) = molecular target: T3, ZAP70(SH2dom1.dom2.) (Homo sapiens, UniProt P43403); details: for remaining activity at 10 µM: read-out: percent of DMSO vehicle control
T3 sequence (P43403 1-254 limits assumed): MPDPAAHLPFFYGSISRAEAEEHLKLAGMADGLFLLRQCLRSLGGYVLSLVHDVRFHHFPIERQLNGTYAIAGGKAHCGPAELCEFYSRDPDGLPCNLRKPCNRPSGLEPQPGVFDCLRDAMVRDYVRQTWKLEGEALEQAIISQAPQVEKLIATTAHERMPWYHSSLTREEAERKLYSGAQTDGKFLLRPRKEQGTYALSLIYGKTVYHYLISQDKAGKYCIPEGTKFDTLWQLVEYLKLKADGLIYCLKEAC

[3] = molecular target: T4, STAT3(E616del)-nonphosphorylated (Homo sapiens, UniProt P40763, DEL616-616); format: binding; details: for remaining activity at 10 µM: primary screen
T4 construct: made in house; host or cells: HEK293 (transient transfection), unpurified extract, dephosphorylated by endogenous phosphatases

SH2D1A = molecular target: T5, SH2D1A (Homo sapiens, UniProt O60880); format: binding; details: read-out: percent of DMSO vehicle control
T5 construct: made in house; host or cells: HEK293 (transient transfection), unpurified extract
T5 sequence (O60880 1-128): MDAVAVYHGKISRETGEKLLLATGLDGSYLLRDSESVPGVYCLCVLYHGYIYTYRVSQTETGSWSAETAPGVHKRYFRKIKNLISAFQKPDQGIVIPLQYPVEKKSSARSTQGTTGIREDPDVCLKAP

STAT5A = molecular target: T6, STAT5A (Homo sapiens, UniProt P42229); format: binding; details: for remaining activity at 10 µM: primary screen
T6 construct: made in house; host or cells: HEK293 (transient transfection), unpurified extract
T6 sequence (P42229 1-794): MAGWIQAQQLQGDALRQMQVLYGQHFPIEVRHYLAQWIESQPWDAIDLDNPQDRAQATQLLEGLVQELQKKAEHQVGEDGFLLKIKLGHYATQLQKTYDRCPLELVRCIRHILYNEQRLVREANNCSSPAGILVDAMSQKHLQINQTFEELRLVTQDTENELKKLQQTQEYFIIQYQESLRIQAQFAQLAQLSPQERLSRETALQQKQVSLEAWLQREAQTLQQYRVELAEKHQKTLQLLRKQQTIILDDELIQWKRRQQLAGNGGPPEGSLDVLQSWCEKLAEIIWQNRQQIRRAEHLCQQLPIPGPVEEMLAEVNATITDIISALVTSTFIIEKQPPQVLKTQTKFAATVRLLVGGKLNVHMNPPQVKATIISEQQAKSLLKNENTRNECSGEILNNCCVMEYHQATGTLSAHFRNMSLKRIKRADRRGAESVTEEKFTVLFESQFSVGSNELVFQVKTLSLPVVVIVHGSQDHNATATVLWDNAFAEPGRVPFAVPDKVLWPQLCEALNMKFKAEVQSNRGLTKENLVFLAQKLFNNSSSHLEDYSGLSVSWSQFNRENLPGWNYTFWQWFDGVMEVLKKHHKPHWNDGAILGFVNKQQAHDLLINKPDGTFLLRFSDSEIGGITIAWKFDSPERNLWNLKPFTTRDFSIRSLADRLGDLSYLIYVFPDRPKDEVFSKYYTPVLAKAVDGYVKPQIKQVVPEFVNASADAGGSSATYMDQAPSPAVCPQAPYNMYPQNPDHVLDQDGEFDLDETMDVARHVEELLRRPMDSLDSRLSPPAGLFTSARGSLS

PTPN11(SH2dom.C-term.) = molecular target: T7, PTPN11(SH2dom.C-term.) (Homo sapiens, UniProt Q06124); format: binding; details: for percent of DMSO vehicle control: primary screen, 10 μM
T7 construct: SH2dom.C-term. denotes SH2 domain closest to C-terminus of protein; made in house; host or cells: HEK293 (transient transfection, unpurified extract)
T7 sequence (Q06124 112-216 limits assumed): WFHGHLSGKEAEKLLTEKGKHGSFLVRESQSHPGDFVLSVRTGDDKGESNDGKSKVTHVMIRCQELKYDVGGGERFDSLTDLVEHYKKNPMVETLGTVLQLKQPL

STAT3 = molecular target: T8, STAT3 (Homo sapiens, UniProt P40763); format: binding; details: for remaining activity at 10 µM: primary screen
T8 construct: made in house; host or cells: HEK293 (transient transfection), unpurified extract

STAT5B = molecular target: T9, STAT5B (Homo sapiens, UniProt P51692); format: binding; details: for remaining activity at 10 µM: primary screen
T9 construct: made in house; host or cells: HEK293 (transient transfection), unpurified extract
T9 sequence (P51692 1-787): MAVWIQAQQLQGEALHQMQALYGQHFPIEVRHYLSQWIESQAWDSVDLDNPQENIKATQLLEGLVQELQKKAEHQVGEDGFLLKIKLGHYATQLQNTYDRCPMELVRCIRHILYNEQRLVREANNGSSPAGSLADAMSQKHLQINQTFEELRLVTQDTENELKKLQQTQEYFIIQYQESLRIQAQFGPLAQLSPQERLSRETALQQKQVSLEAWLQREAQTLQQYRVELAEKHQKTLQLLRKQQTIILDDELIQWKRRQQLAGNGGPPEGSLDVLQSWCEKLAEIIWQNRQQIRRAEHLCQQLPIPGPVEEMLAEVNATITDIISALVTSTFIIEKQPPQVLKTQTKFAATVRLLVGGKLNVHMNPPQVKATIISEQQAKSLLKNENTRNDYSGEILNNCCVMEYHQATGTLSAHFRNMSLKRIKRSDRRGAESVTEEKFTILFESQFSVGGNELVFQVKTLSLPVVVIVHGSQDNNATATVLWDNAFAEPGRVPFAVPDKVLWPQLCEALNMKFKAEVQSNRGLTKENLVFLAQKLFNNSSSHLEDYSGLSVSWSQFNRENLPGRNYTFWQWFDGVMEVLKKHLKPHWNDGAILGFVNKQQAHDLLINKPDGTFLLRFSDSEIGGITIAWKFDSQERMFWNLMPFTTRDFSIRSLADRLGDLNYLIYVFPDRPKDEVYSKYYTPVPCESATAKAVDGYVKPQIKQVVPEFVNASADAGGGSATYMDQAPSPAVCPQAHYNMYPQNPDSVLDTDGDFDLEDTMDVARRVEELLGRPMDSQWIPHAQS

[4] = molecular target: T10, STAT3(N647I)-nonphosphorylated (Homo sapiens, UniProt P40763, N647I); format: binding; details: for remaining activity at 10 µM: primary screen
T10 construct: made in house; host or cells: HEK293 (transient transfection), unpurified extract, dephosphorylated by endogenous phosphatases

[5] = read-out: percent of DMSO vehicle control

SMILES | remaining activity at 10 µM [1, 5] [%] | remaining activity at 10 µM [2, 5] [%] | remaining activity at 10 µM (ZAP70(SH2dom1.dom2.)) [%] | remaining activity at 10 µM [3, 5] [%] | remaining activity at 10 µM (SH2D1A; primary screen, 10 μM) [%] | remaining activity at 10 µM (STAT5A; [5]) [%] | percent of DMSO vehicle control (PTPN11(SH2dom.C-term.)) [%] | remaining activity at 10 µM (STAT3; [5]) [%] | remaining activity at 10 µM (STAT5B; [5]) [%] | remaining activity at 10 µM [4, 5] [%] | further results
O=C(CCl)Nc1cccc(CNC(=O)[C@H](Cc2ccc(OP(=O)(O)O)cc2)NC(=O)Cc2ccc(F)cc2)c1 [MN551] | 86.5 ± 6.2 | 49 ± 5.7 | 33.5 | 203 | 77.9 ± 2.2 | 39 ± 0.8 | 125.6 | 67.8 | 49.1 ± 7.6 | 81.2 | –
CC[C@H](C)[C@H](NC(=O)[C@H](CCC(=O)O)NC(=O)[C@H](CCC(=O)O)NC(=O)[C@H](Cc1ccc(OP(=O)(O)O)cc1)NC(=O)/C=C/c1ccc(O)c(O)c1)C(=O)N[C@@H](CCC(=O)O)C(=O)O [Caffeic acid-pYEEIE] (Caffeoyl-[pY]EEIE-OH) | – | – | 32.3 ± 1.6 | – | – | – | 72.6±1.1 | – | – | – | percent of DMSO vehicle control at 10 µM [1, 5]: 91 ± 2.3%; percent of DMSO vehicle control at 10 µM [2, 5]: 131 ± 28.4%; Kd (ZAP70(SH2dom1.dom2.)): 6900 ± 3.8 nM; percent of DMSO vehicle control at 10 µM [3, 5]: 85.5 ± 0.3%; remaining activity at 10 µM (SH2D1A): 79.8 ± 21.3%; Kd (STAT5A): 4020 ± 1500 nM; percent of DMSO vehicle control at 10 µM (STAT5A; [5]): 6.2 ± 0.4%; percent of DMSO vehicle control at 10 µM (STAT3; [5]): 102 ± 22.8%; Kd (STAT5B): 4200 ± 2800 nM; percent of DMSO vehicle control at 10 µM (STAT5B; [5]): 19.3 ± 2.8%; percent of DMSO vehicle control at 10 µM [4, 5]: 85.3 ± 2.1%
C/C(=C\C(=O)N[C@H](C(=O)N1CCC[C@H]1C(=O)N(c1ccccc1)c1ccc(I)cc1)C(C)(C)C)c1ccc(OP(=O)(O)O)cc1 [STAT6-IN-1] | 0 | 0 | 51.4 | 0 | 68.7 ± 3.5 | 0 | 2.1±0.9 | 0 | 0 | 0 | Kd ([1]; dose-response, read-out: KD): 190 ± 107 nM; Kd ([2]; dose-response, read-out: KD): 102 ± 44 nM; Kd ([3]; dose-response, read-out: KD): 140 ± 35 nM; Kd (STAT5A; dose-response, read-out: KD): 9.1 ± 4.3 nM; Kd (PTPN11(SH2dom.C-term.); dose-response, read-out: KD): 1060 ± 350 nM; Kd (STAT3; dose-response, read-out: KD): 180 ± 0.01 nM; Kd (STAT5B; dose-response, read-out: KD): 16 ± 3.2 nM; Kd ([4]; dose-response, read-out: KD): 800 ± 120 nM
O=C(COc1ccc2cc(C(=O)Nc3ccccc3)ccc2c1)NCc1ccc(OP(=O)(O)O)c(OP(=O)(O)O)c1 [Stafib-1] | 97.5 ± 16.8 | 75.3 ± 26 | 58 ± 19.5 | 135 | 87.8 ± 37.4 | 22 ± 26.6 | 99.1±12.9 | 66.9 ± 10 | 0 | 78.6 ± 15.4 | –

— publication PMC12951562, “SH2scan: Mapping SH2 Domain-Ligand Binding Selectivity for Inhibitors and Degraders” (Journal of Medicinal Chemistry, 2026)
